Source: patent publication US20250221953A1 (The University of Chicago, priority 2022, published 2025)
Where a name gives a salt, the structure may show the parent alone.

system: Jurkat T cells; type: cell-based, human; settings: IL-2 production level in treated group compared to control group; 48 hours treatment, then anti-CD3/anti-CD28 12 hours
Source text: Two preliminary screens were designed and performed.
To construct “blood chemical compound library for cell-based screening purposes, components such as antibodies that are difficult to distinguish due to a wide variety, and some supplements that only function at a whole organism level including fish oils and herbs were excluded. Physiological ranges of serum levels of individual blood chemicals are available in the human metabolome database (https://hmdb.ca/) and applied in the experimental design. For first screen 1a, Jurkat T cells were treated with blood chemical library for 48 hours and then activated with 2.5 μg/mL anti-CD3 and 0.5 μg/mL anti-CD28 antibodies for another 12 hours, followed by measurement of IL-2 level in medium supernatant using ELISA kit (Biolegend). For first screen 1b, 1×10^5 PD-1^+ Jurkat T cells were co-cultured with 2×10^4 H596 (PD-L1^+) cells in a well of 96-well plate for 60 hours, and then activated with 2.5 μg/mL anti-CD3 and 0.5 μg/mL anti-CD28 antibodies for another 12 hours, followed by measurement of IL-2 level in medium supernatant using ELISA kit. Please also refer to Resources Table and Table 1-2 for more details.

| Molecule | Relative changed percentage (%) |
| --- | --- |
| CC1=C[C@H](O)CC(C)(C)[C@H]1/C=C/C(C)=C/C=C/C(C)=C/C=C/C=C(C)/C=C/C=C(C)/C=C/C1=C(C)C[C@@H](O)CC1(C)C [Lutein] | 31.92% |
| CC(C)=CCC/C(C)=C/C=C/C(C)=C/C=C/C(C)=C/C=C/C=C(C)/C=C/C=C(C)/C=C/C=C(\C)CCC=C(C)C [Lycopene] | 30% |
| [Cl-].[Cl-].[Mg+2] [MAGNESIUM CHLORIDE ANHYDROUS] | 31.9% |
| COc1ccc2[nH]cc(CCNC(C)=O)c2c1 [MELATONIN CRYSTALLINE/melatonin, melatonin] | 56.15% |
| [Cl][Hg][Cl] [MERCURY(II) CHLORIDE] | −2.995% |
| O[C@H]1[C@H](O)[C@@H](O)[C@H](O)[C@@H](O)[C@H]1O [MYO-INOSITOL] | 40.7157% |
| N[C@@H](CC(=O)[O-])C(=O)[O-].[Mg+2] [Magnesium Aspartate] | −4.156% |
| O=C(O)CC(O)C(=O)O (stereo not shown) [Malic acid] | 38.52% |
| O=S(=O)([O-])[O-].[Mn+2] [Manganese sulfate] | 29.55% |
| CS(C)(=O)=O [Methylsulfonylmethane] | −17.53% |
| O=P([O-])(O)O.[K+] [Monopotassium Phosphate] | 28.67% |
| CCCCCCCCCCCCCC(=O)O [Myristic Acid] | −17.39% |
| CCCC/C=C\CCCCCCCC(=O)O [Myristoleic acid] | −21.38% |
| CC(=O)N[C@H]1C(O)O[C@H](CO)[C@@H](O)[C@@H]1O (stereo partly drawn) [N-acetyl D-glucosamine] | −4.044% |
| NC[C@H](O)c1ccc(O)c(O)c1 [NOREPINEPHRINE] | 40.2469% |
| CCCCCCCC/C=C\CCCCCCCCCCCCCC(=O)O [Nervonic acid] | 37.68% |
| NC(=O)c1cccnc1 [Niacinamide] | 95.23% |
| O=C(O)c1cccnc1 [Nicotinic Acid] | 205.6% |
| COc1nc(N)nc2nc[nH]c12 [O-METHYLGUANINE] | 6.274% |
| O=C(O)C(=O)O [OXALIC ACID SODIUM SALT] | −16.88% |
| CC[C@H](C)[C@@H]1NC(=O)[C@H](Cc2ccc(O)cc2)NC(=O)[C@@H](N)CSSC[C@@H](C(=O)N2CCC[C@H]2C(=O)N[C@@H](CC(C)C)C(=O)NCC(N)=O)NC(=O)[C@H](CC(N)=O)NC(=O)[C@H](CCC(N)=O)NC1=O [OXYTOCIN] | −6.991% |
| CCCCCCCC/C=C\CCCCCCCC(=O)O [Oleic acid] | 77.53% |
| Oc1ccccc1 [PHENOL] | 26.79% |
| CC(C)CCCC(C)CCCC(C)CCCC(C)CC(=O)O (stereo not shown) [PHYTANIC ACID] | −18.61% |
| [Br-].[K+] [POTASSIUM BROMIDE] | 78.36% |
| [Cl-].[K+] [POTASSIUM CHLORIDE/potassium, POTASSIUM CHLORIDE] | 38.97% |
| c1ncc2[nH]cnc2n1 [PURINE] | 63.4263% |

| Molecule | Relative changed percentage (%) |
| --- | --- |
| Cc1ncc(CO)c(CO)c1O [PYRIDOXINE] | 11.1111% |
| c1cncnc1 [PYRIMIDINE] | 4.127% |
| CC(=O)C(=O)O [PYRUVIC ACID] | 10.42% |
| CCCCCCCCCCCCCCCC(=O)O [Palmitic Acid] | −2.643% |
| CCCCCC/C=C\CCCCCCCC(=O)O [Palmitoleic acid] | 54.63% |
| O=C([O-])CC(O)(CC(=O)[O-])C(=O)[O-].[K+].[K+].[K+] [Potassium Citrate] | 58.7511% |
| O=C([O-])[C@H](O)[C@@H](O)[C@H](O)[C@H](O)CO.[K+] [Potassium Gluconate] | 97.7133% |
| O=P([O-])([O-])O.[K+].[K+] [Potassium Phosphate Dibasic] | 177.4846% |
| C/C=C/C=C/C(=O)[O-].[K+] [Potassium sorbate] | −2.288% |
| CC(=O)O[C@H]1CC[C@@]2(C)C(=CC[C@H]3[C@@H]4CC[C@H](C(C)=O)[C@@]4(C)CC[C@@H]32)C1 [Pregnenolone Acetate] | 82.91% |
| COc1cc(/C=C/c2ccc(O)cc2)cc(OC)c1 [Pterostibene] | 6.874% |
| Cc1ncc(CO)c(C=O)c1O.Cl [Pyridoxal Hydrochloride] | 7.787% |
| Cc1ncc(CO)c(CO)c1O.Cl [Pyridoxine Hydrochloride] | −17.45% |
| O=c1c(O)c(-c2ccc(O)c(O)c2)oc2cc(O)cc(O)c12 [Quercetin] | −4.501% |
| Oc1ccc(C=Cc2cc(O)cc(O)c2)cc1 [Resveratrol] | 13.16% |
| C[C@@H]1O[C@@H](OC[C@H]2O[C@@H](Oc3c(-c4ccc(O)c(O)c4)oc4cc(O)cc(O)c4c3=O)[C@H](O)[C@@H](O)[C@@H]2O)[C@H](O)[C@H](O)[C@H]1O [Rutoside trihydrate] | 14.9881% |
| O=C([O-])O.[Na+] [SODIUM BICARBONATE] | 50.35% |
| [Br-].[Na+] [SODIUM BROMIDE] | −26.98% |
| [Cl-].[Na+] [SODIUM CHLORIDE] | 36.53% |
| O=S(=O)([O-])[O-].[Na+].[Na+] [SODIUM SULFATE] | 38.99% |
| O=C(O)CCC(=O)O [SUCCINIC ACID] | 4.14% |
| OC[C@H]1O[C@@](CO)(O[C@H]2O[C@H](CO)[C@@H](O)[C@H](O)[C@H]2O)[C@@H](O)[C@@H]1O [SUCROSE] | 70.45% |
| [F-].[Na+] [Sodium Fluoride] | −43.81% |
| [Na+].[Na+].[O]=[Mo](=[O])([O-])[O-] [Sodium Molybdate] | 22.1968% |
| O=C([O-])CC(O)(CC(=O)[O-])C(=O)[O-].[Na+].[Na+].[Na+] [Sodium citrate] | 13.84% |
| CCCCCCCCCCCCCCCCCC(=O)O [Stearic Acid] | 38.77% |
| CC/C=C\C/C=C\C/C=C\C/C=C\CCCCC(=O)O [Stearidonic Acid] | 109.3% |

| Molecule | Relative changed percentage (%) |
| --- | --- |
| Cn1cnc2c1c(=O)[nH]c(=O)n2C [THEOBROMINE] | 25.42% |
| Cc1ncc(C[n+]2csc(CCOP(=O)(O)OP(=O)(O)O)c2C)c(N)n1 [TIIIAMINE PYROPIIOSPIIATE] | 9.753% |
| [Cl][Sn][Cl] [TIN(II) CHLORIDE/Tin, TIN(II) CHLORIDE] | 18.86% |
| CC1=CC(=O)C(C(C)C)=CC1=O [Thymoquinone] | 4.558% |
| C[N+](C)(C)CC(=O)[O-] [Trimethylglycine] | 9.459% |
| O=c1cc[nH]c(=O)[nH]1 [URACIL] | 2.457% |
| NC(N)=O [UREA] | −0.3112% |
| O=c1[nH]c(=O)c2[nH]c(=O)[nH]c2[nH]1 [URIC ACID] | −6.651% |
| COc1c(O)c(C)c(C/C=C(\C)CC/C=C(\C)CC/C=C(\C)CC/C=C(\C)CC/C=C(\C)CC/C=C(\C)CC/C=C(\C)CC/C=C(\C)CC/C=C(\C)CCC=C(C)C)c(O)c1OC [Ubiquinol] | 2.165% |
| CC1=C(C/C=C(\C)CCC[C@H](C)CCC[C@H](C)CCCC(C)C)C(=O)c2ccccc2C1=O [VITAMIN K1] | 10.13% |
| O=S(=O)([O-])[O-].[O]=[V+2] [Vanadylsulfate] | 7.094% |
| [Cl-].[Cl-].[Zn+2] [ZINC CHLORIDE] | 13.34% |
| CC1=C(/C=C/C(C)=C/C=C/C(C)=C/C=C/C=C(C)/C=C/C=C(C)/C=C/C2=C(C)C[C@@H](O)CC2(C)C)C(C)(C)C[C@H](O)C1 [Zcaxanthin] | −1.652% |
| O=C([O-])CC(O)(CC(=O)[O-])C(=O)[O-].O=C([O-])CC(O)(CC(=O)[O-])C(=O)[O-].[Zn+2].[Zn+2].[Zn+2] [Zinc Citrate] | −2.073% |
| [O]=[Zn] [Zinc Oxide] | 3.627% |
| CC1=C(/C=C/C(C)=C/C=C/C(C)=C/C=C/C=C(C)/C=C/C=C(C)/C=C/C2=C(C)CCCC2(C)C)C(C)(C)CCC1 [all trans B carotene] | 35.08% |
| O=C(O)CCCCC1CCSS1 (stereo not drawn) [alpha-lipoic acid] | 54.62% |
| O=C(O)CCCC[C@@H]1SC[C@@H]2NC(=O)N[C@@H]21 [d-Biotin] | 29.84% |
| CCCCC/C=C\C/C=C\CCCCCCCC(=O)O [linoleic acid] | −9.42% |
| O=[Se](O)O [sodium selenite] | 13.27% |
| [Cl-].[Cl-].[Sr+2] [strontium chloride] | 30.89% |
| O=C(O)[C@@H]1C[C@@H](O)CN1 [trans-4-Hydroxy-L-proline] | 5.281% |
| N[C@@H](Cc1cc(I)c(Oc2ccc(O)c(I)c2)c(I)c1)C(=O)[O-].[Na+] [′,5-TRIIODO-L-THYRONINE SODIUM SALT] | −13.42% |
| (−)-EPINEPHRINE | 53.12% |
| ADENINE DI[…] SALT HYDRAT | −0.3704% |
